Measured values from ChEMBL document CHEMBL1122157 (J Med Chem, 1982).
pIC50: −log10 of the molar value.

biological target: T1, Dihydrofolate reductase (Gallus gallus, UniProt P00378); test: Evaluated for the inhibition of chicken liver Dihydrofolate reductase by using standard enzyme assay; settings: read-out: I50
T1 sequence (P00378 whole entry): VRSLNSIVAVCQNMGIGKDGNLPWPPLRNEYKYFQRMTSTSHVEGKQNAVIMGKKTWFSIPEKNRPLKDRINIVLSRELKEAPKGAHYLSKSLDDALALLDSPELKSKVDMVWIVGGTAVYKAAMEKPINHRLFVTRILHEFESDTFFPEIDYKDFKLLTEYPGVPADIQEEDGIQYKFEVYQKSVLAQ

Structure (SMILES)	pIC50
CN(Cc1cnc2nc(N)nc(N)c2n1)c1ccc(C(=O)NC(CCCCNC(=O)OCc2ccccc2)C(=O)O)cc1 (stereo unspecified)	6.42
CN(Cc1cnc2nc(N)nc(N)c2n1)c1ccc(C(=O)NC(CCCNC(=O)OCc2ccccc2)C(=O)OC(C)(C)C)cc1 (stereo unspecified)	5.51
CN(Cc1cnc2nc(N)nc(N)c2n1)c1ccc(C(=O)NC(CCCCNC(=O)OCc2ccccc2)C(=O)OC(C)(C)C)cc1 (stereo unspecified)	6.02
CN(Cc1cnc2nc(N)nc(N)c2n1)c1ccc(C(=O)NC(CCCNC(=O)OCc2ccccc2)C(=O)O)cc1 (stereo unspecified)	6.48

Now those with a higher pIC50, led by results:

pIC50	Structure (SMILES)
6.60	CN(Cc1cnc2nc(N)nc(N)c2n1)c1ccc(C(=O)NC(CCCN)C(=O)O)cc1 (stereo unspecified)
6.89	CN(Cc1cnc2nc(N)nc(N)c2n1)c1ccc(C(=O)NC(CCCCN)C(=O)O)cc1 (stereo unspecified)
